According to PMC11620503 (Antimicrobial Agents and Chemotherapy, 2024):

Key:
Test in all cases: Ki app determination (Waley's method)
OXA-65 = OXA-65 (Acinetobacter baumannii, UniProt Q58XD3)
VIM-2 = VIM-2 (Escherichia coli, UniProt Q5U7L7)
KPC-3 = KPC-3 (Klebsiella pneumoniae, UniProt Q9F663, H272Y)
OXA-72 = OXA-72 (Acinetobacter baumannii, UniProt Q5XQU0)
CTX-M-27 = CTX-M-27 (Escherichia coli, UniProt Q840M4)
OXA-23 = OXA-23 (Acinetobacter baumannii, UniProt Q9L4P2)
VIM-1 = VIM-1 (Pseudomonas aeruginosa, UniProt A0A0F7KYQ8)
NDM-5 = NDM-5 (Klebsiella pneumoniae, UniProt C7C422, M154L/V88L)
OXA-24 = OXA-24 (Acinetobacter baumannii, UniProt Q8RLA6)
NDM-4 = NDM-4 (Klebsiella pneumoniae, UniProt C7C422, M154L)
IMP-6 = IMP-6 (Serratia marcescens, UniProt P52699, S214G)
NDM-1 = NDM-1 (Klebsiella pneumoniae, UniProt C7C422)
CTX-M-15 = CTX-M-15 (Escherichia coli, UniProt Q9EXV5)
IMP-1 = IMP-1 (Serratia marcescens, UniProt P52699)
SHV-5 = SHV-5 (Klebsiella pneumoniae, UniProt P0A3M1)
SHV-12 = SHV-12 (Klebsiella pneumoniae, UniProt P0A3M1, L31Q)
OXA-48 = OXA-48 (Klebsiella pneumoniae, UniProt Q6XEC0)
KPC-38 = KPC-38 (Klebsiella pneumoniae, UniProt Q9F663); conditions: read-out: Ki app, means from three independent studies
KPC-2 = KPC-2 (Klebsiella pneumoniae, UniProt Q9F663)
NDM-7 = NDM-7 (Klebsiella pneumoniae, UniProt C7C422, D130N/M154L)
NDM-6 = NDM-6 (Klebsiella pneumoniae, UniProt C7C422, A233V)
OXA-66 = OXA-66 (Acinetobacter baumannii, UniProt Q58XD2)
SHV-2 = SHV-2 (Klebsiella pneumoniae, UniProt P0A9Z8)
CTX-M-14 = CTX-M-14 (Escherichia coli, UniProt Q9L5C7)

| Compound | Ki (OXA-65) | Ki (VIM-2) | Ki (KPC-3) | Ki (OXA-72) | Ki (CTX-M-27) | Ki (OXA-23) | Ki (VIM-1) | Ki (NDM-5) | Ki (OXA-24) | Ki (NDM-4) | Ki (IMP-6) | Ki (NDM-1) | Ki (CTX-M-15) | Ki (IMP-1) | Ki (SHV-5) | Ki (SHV-12) | Ki (NDM-7) | Ki (NDM-6) | Ki (OXA-66) | Ki (SHV-2) | further results |
| --- | --- | --- | --- | --- | --- | --- | --- | --- | --- | --- | --- | --- | --- | --- | --- | --- | --- | --- | --- | --- | --- |
| C[C@]1(Cn2ccnn2)[C@H](C(=O)O)N2C(=O)C[C@H]2S1(=O)=O [Tazobactam, tazobactam] | > 100000 nM | > 100000 nM | 270 ± 80.8 nM | 78.9 ± 8.96 nM | 0.0403 ± 0.0162 nM | 14 ± 5.31 nM | > 100000 nM | > 100000 nM | 100 ± 45.6 nM | > 100000 nM | > 100000 nM | > 100000 nM | 0.0387 ± 0.00434 nM | > 100000 nM | 1.84 ± 0.243 nM | 1.68 ± 0.266 nM | > 100000 nM | > 100000 nM | > 100000 nM | 0.187 ± 0.104 nM | Ki (OXA-48): 5.32 ± 0.329 nM; Ki (KPC-38): 112 ± 14.5 nM; Ki (KPC-2): 159 ± 48.2 nM |
| O=C(O)C[C@@H]1CC[C@H](NC(=O)Cc2cccs2)B(O)O1 [Vaborbactam, vaborbactam] | > 100000 nM | > 100000 nM | 88.3 ± 30.3 nM | > 100000 nM | 351 ± 28.7 nM | > 100000 nM | > 100000 nM | > 100000 nM | > 100000 nM | > 100000 nM | > 100000 nM | > 100000 nM | 78.1 ± 6.63 nM | > 100000 nM | 1420 nM | 755 ± 103 nM | > 100000 nM | > 100000 nM | > 100000 nM | > 100000 nM | Ki (CTX-M-14): 392 ± 20.3 nM; Ki (OXA-48): > 100000 nM; Ki (KPC-38): 48.3 ± 13.2 nM; Ki (KPC-2): 63.7 ± 24.9 nM |
| O=C(NC1CCNCC1)[C@@H]1CC[C@@H]2CN1C(=O)N2OS(=O)(=O)O [Relebactam, relebactam] | > 100000 nM | > 100000 nM |  | ≥ 37400 nM | 3.62 ± 1.2 nM | 5640 nM | > 100000 nM | > 100000 nM | > 100000 nM | > 100000 nM | > 100000 nM | > 100000 nM | 0.841 ± 0.235 nM | > 100000 nM | 6.26 ± 1.53 nM | 19.3 ± 6.32 nM | > 100000 nM | > 100000 nM | > 100000 nM | 0.373 ± 0.0856 nM | Ki (CTX-M-14): 5.96 ± 3.22 nM |
